Usually Kd stands for a measure of binding affinity in units of concentration. Low readings indicate higher affinity, high ones lower affinity.

The record followed here is publication PMC4972871, “Optimization of Electrospray Ionization by Statistical Design of Experiments and Response Surface Methodology: Protein–Ligand Equilibrium Dissociation Constant Determinations” (Journal of the American Society for Mass Spectrometry, 2016).

In experiment [1] the target is T1, Plasmodium vivax guanylate kinase (PvGK) (Plasmodium vivax, UniProt A5K709).
T1 construct: gene PVX_099895; Full-length guanylate kinase with an N-terminal 6-histidine tag (23545 Da)
T1 sequence (A5K709 entry or part of it): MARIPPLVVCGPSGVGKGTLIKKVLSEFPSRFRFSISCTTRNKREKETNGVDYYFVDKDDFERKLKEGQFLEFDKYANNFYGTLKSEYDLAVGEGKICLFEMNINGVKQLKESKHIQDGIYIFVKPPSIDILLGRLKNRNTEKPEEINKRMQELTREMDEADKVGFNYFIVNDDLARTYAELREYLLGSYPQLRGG
The experiment can be described thus: native ESI-FT-ICR-MS titration (optimized source); confirmed by competition with GMP ([…]). It is filed as binding.

Experiment [2] addresses T1, Plasmodium vivax guanylate kinase (PvGK). The experiment can be described thus: native ESI-FT-ICR-MS titration (optimized source conditions). Type of experiment: binding.

In experiment [1], `Nc1nc2c(ncn2[C@@H]2O[C@H](COP(=O)(O)OP(=O)(O)O)[C@@H](O)[C@H]2O)c(=O)[nH]1` [GDP] had a Kd of 0.3 ± 0.03 µM.

`Nc1nc2c(ncn2[C@@H]2O[C@H](COP(=O)(O)O)[C@@H](O)[C@H]2O)c(=O)[nH]1` [GMP] showed a Kd in experiment [2] of 1.84 ± 0.11 µM.
